Test results published in US9365615B2, “Cross-linked peptides containing non-peptide cross-linked structure, method for synthesizing cross-linked peptides, and novel organic compound used in method” (JITSUBO Co., Ltd., priority 2013, dated 2016).
*1 amine or outer side, *2 acyl side, *3 side chain or, on linkers, in order; H or OH if unused. Where a SMILES comes first, the peptide text is derived from it. Bridges are numbered along the chain shown (N, C = ends). X1 = O=C(C[*:2])[*:1]

What was measured:
carboxy peptidase = assay: Resistance to peptidase: decomposition by carboxy peptidase (HPLC); format: in vitro ADME; conditions: isolated carboxy peptidase (SIGMA); 1 U/ml enzyme in PBS, 37° C., peptide 0.2 mg/ml; time at which half of the peptide was decomposed; read-out: half period by carboxy peptidase (t1/2)
Procedure: (§1) Resistance to a peptidase of a peptide of the present invention was investigated using a carboxy peptidase and chymotrypsin. Resistance to a peptidase was measured as described below.
A carboxy peptidase purchased from SIGMA was treated with PBS to prepare an enzyme solution of 1 U/ml, which was then kept warm at 37° C. in a water bath. Then, a peptide solution having a concentration adjusted to 5 mg/ml with DMSO: pure water=1:1 mixed solvent was treated with PBS(−) to obtain a concentration of 1 mg/ml, and the enzyme solution and the peptide solution were mixed at 4:1 so as to give a peptide final concentration of 0.2 mg/ml. Thereafter, these were reacted quickly at 37° C. With time, the reaction solution was sampled each in an amount of 0.1 ml, and a reaction stopping solution (25% TFA in acetonitrile, 20 μL) was added to stop the reaction. Samples were analyzed by HPLC, and decomposition of a peptide by the peptidase was measured. Sampling was conducted at 0, 0.5 minutes, 1 minute and 2 minutes, and when decomposition of […] or more was not obtained at 2 minutes, sampling was conducted further at 0.5 hours, 1 hour, 3 hours, additionally, sometimes at 6 hours, and for peptides stable for a long period, sampling was conducted in a range of 24 hours to 168 hours according to demands. Time at which half of the peptide added was decomposed was measured.

chymotrypsin = biological target: T1, chymotrypsin (Bos taurus, UniProt P00766); assay: Resistance to peptidase: decomposition by chymotrypsin (HPLC); format: in vitro ADME; conditions: isolated chymotrypsin (SIGMA), pH 8; 4 U/ml enzyme in 0.1M Tris-HCl (pH8.0), 37° C., peptide 0.2 mg/ml; time at which half of the peptide was decomposed; read-out: half period by chymotrypsin (t1/2)
T1 construct: purchased SIGMA
Procedure: as §1
Chymotrypsin purchased from SIGMA was treated with 0.1M Tris-HCl (pH8.0) to prepare an enzyme solution of 4 U/ml, which was then kept warm at 37° C. in a water bath. Then, a peptide solution treated with DMSO: pure water=1:1 to obtain a concentration of 5 mg/ml was treated with 0.1M Tris-HCl (pH8.0) to give a concentration of 1 mg/ml, and the enzyme solution and the peptide solution were mixed at 4:1 so as to give a peptide final concentration of 0.2 mg/ml. Thereafter, these were reacted quickly at 37° C. With time, the reaction solution was sampled each in an amount of 0.1 ml, and a reaction stopping solution (25% TFA in acetonitrile, 20 μL) was added to stop the reaction. Samples were analyzed by HPLC, and decomposition of a peptide by chymotrypsin was measured. Sampling was conducted at 0, 0.5 minutes, 1 minute and 2 minutes, and when decomposition of 50% or more was not obtained at 2 minutes, sampling was conducted further at 0.5 hours, 1 hour, 3 hours, and time at which half of the peptide added was decomposed was measured.

Row | Compound | half-life at 0.2 mg/ml (carboxy peptidase) [min] | half-life at 0.2 mg/ml (chymotrypsin) [min]
1 | CC(=O)N[C@@H](Cc1ccc(O)cc1)C(=O)N[C@H]1CCCCN(C(C)=O)CCCCN(CC(=O)N[C@@H](Cc2ccc(O)cc2)C(=O)O)C(=O)[C@H](CC(C)C)NC(=O)[C@H](Cc2ccc(O)cc2)NC(=O)[C@H](CCC(N)=O)NC(=O)[C@H](CO)NC(=O)[C@H](Cc2c[nH]c3ccccc23)NC1=O [Bdev5] | 3.34 | 0.39
2 | CC(=O)N1CCCCN(CC(=O)N[C@@H](Cc2ccc(O)cc2)C(=O)O)C(=O)[C@H](CC(C)C)NC(=O)[C@H](Cc2ccc(O)cc2)NC(=O)[C@H](CCC(N)=O)NC(=O)[C@H](CO)NC(=O)[C@H](Cc2c[nH]c3ccccc23)NC(=O)CN(C(=O)[C@@H](N)Cc2ccc(O)cc2)CCCC1 [Bdev-21] | 14.6 | 0.95
3 | CC(=O)N[C@@H](Cc1ccc(O)cc1)C(=O)N[C@H]1CCCCNCCCCN(CC(=O)N[C@@H](Cc2ccc(O)cc2)C(=O)O)C(=O)[C@H](CC(C)C)NC(=O)[C@H](Cc2ccc(O)cc2)NC(=O)[C@H](CCC(N)=O)NC(=O)[C@H](CO)NC(=O)[C@H](Cc2c[nH]c3ccccc23)NC1=O [Bdev6] | 2.47 | 2.09
4 | CC(=O)N1CCCC[C@@H](C(=O)N[C@@H](Cc2ccc(O)cc2)C(=O)O)NC(=O)[C@H](CC(C)C)NC(=O)[C@H](Cc2ccc(O)cc2)NC(=O)[C@H](CCC(N)=O)NC(=O)[C@H](CO)NC(=O)[C@H](Cc2c[nH]c3ccccc23)NC(=O)[C@@H](NC(=O)[C@@H](N)Cc2ccc(O)cc2)CCCC1 [Bdev-25] | 2.63 | 1.85
5 | CC(=O)N1CCCC[C@H](NC(=O)[C@@H](N)Cc2ccc(O)cc2)C(=O)N[C@@H](Cc2c[nH]c3ccccc23)C(=O)N[C@@H](CO)C(=O)N[C@@H](CCC(N)=O)C(=O)N[C@@H](Cc2ccc(O)cc2)C(=O)N[C@@H](CC(C)C)C(=O)N(CC(=O)N[C@@H](Cc2ccc(O)cc2)C(=O)O)CCCC1 [Bdev2] | 18.7 | 1.4
6 | CC(C)C[C@@H]1NC(=O)[C@H](Cc2ccc(O)cc2)NC(=O)[C@H](CCC(N)=O)NC(=O)[C@H](CO)NC(=O)[C@H](Cc2c[nH]c3ccccc23)NC(=O)[C@@H](NC(=O)[C@@H](N)Cc2ccc(O)cc2)CCCCNCCCCN(CC(=O)N[C@@H](Cc2ccc(O)cc2)C(=O)O)C1=O [Bdev8] | 2.79 | 1.26
7 | CCC(=O)N1CCCC[C@H](NC(=O)[C@@H](N)Cc2ccc(O)cc2)C(=O)N[C@@H](Cc2c[nH]c3ccccc23)C(=O)N[C@@H](CO)C(=O)N[C@@H](CCC(N)=O)C(=O)N[C@@H](Cc2ccc(O)cc2)C(=O)N[C@@H](CC(C)C)C(=O)N(CC(=O)N[C@@H](Cc2ccc(O)cc2)C(=O)O)CCCC1 [Bdev-27] | 15 | 4.37

Further lines, results first:

Row | half-life at 0.2 mg/ml (carboxy peptidase) [min] | half-life at 0.2 mg/ml (chymotrypsin) [min] | Compound
8 | 0.72 | 0.45 | CC(C)C[C@@H]1NC(=O)[C@H](Cc2ccc(O)cc2)NC(=O)[C@H](CCC(N)=O)NC(=O)[C@H](CO)NC(=O)[C@H](Cc2c[nH]c3ccccc23)NC(=O)[C@@H](NC(=O)[C@@H](N)Cc2ccc(O)cc2)CCCCNC(=O)CSC[C@@H](C(=O)N[C@@H](Cc2ccc(O)cc2)C(=O)O)NC1=O [Comp. 1, reference compound] (H-YKWSQYLCY-OH; linker 2-8 via X1)
9 | 15.7 | 3.73 | COCCOCCOCCOCCC(=O)N1CCCC[C@H](NC(=O)[C@@H](N)Cc2ccc(O)cc2)C(=O)N[C@@H](Cc2c[nH]c3ccccc23)C(=O)N[C@@H](CO)C(=O)N[C@@H](CCC(N)=O)C(=O)N[C@@H](Cc2ccc(O)cc2)C(=O)N[C@@H](CC(C)C)C(=O)N(CC(=O)N[C@@H](Cc2ccc(O)cc2)C(=O)O)CCCC1 [Bdev-29]
10 | 21.7 | 2.9 | CCCCC(=O)N1CCCC[C@H](NC(=O)[C@@H](N)Cc2ccc(O)cc2)C(=O)N[C@@H](Cc2c[nH]c3ccccc23)C(=O)N[C@@H](CO)C(=O)N[C@@H](CCC(N)=O)C(=O)N[C@@H](Cc2ccc(O)cc2)C(=O)N[C@@H](CC(C)C)C(=O)N(CC(=O)N[C@@H](Cc2ccc(O)cc2)C(=O)O)CCCC1 [Bdev-28]
11 | 19.2 | 3.66 | COCCOCCOCCOCCOCCOCCOCCOCCC(=O)N1CCCC[C@H](NC(=O)[C@@H](N)Cc2ccc(O)cc2)C(=O)N[C@@H](Cc2c[nH]c3ccccc23)C(=O)N[C@@H](CO)C(=O)N[C@@H](CCC(N)=O)C(=O)N[C@@H](Cc2ccc(O)cc2)C(=O)N[C@@H](CC(C)C)C(=O)N(CC(=O)N[C@@H](Cc2ccc(O)cc2)C(=O)O)CCCC1 [Bdev-30]
12 | 0.45 | 0.4 | CC(C)C[C@@H]1NC(=O)[C@H](Cc2ccc(O)cc2)NC(=O)[C@H](CCC(N)=O)NC(=O)[C@H](CO)NC(=O)[C@H](Cc2c[nH]c3ccccc23)NC(=O)[C@@H](NC(=O)[C@@H](N)Cc2ccc(O)cc2)CSSC[C@@H](C(=O)N[C@@H](Cc2ccc(O)cc2)C(=O)O)NC1=O [STD, reference compound]
